Assay results taken from patent US11207277B2, “Methods of treating diseases associated with high-fat diet and vitamin a deficiency using retinoic acid receptor agonists” (Cornell University, priority 2013, dated 2021).
“Also recorded” adds a separate entry of the source.

Experiments:
4-hydroxynonenal (4-HNE) = test: 4-HNE staining of liver sections; type: in vivo, mice; settings: HF diet + AC261066 vs HF diet group
Description: (§1) WT male C57/BL6 male mice were maintained on either a standard laboratory chow-fed diet (CFD) with 13% kcal fat, (diet #5053, Lab Diet, Inc, St. Louis, Mo.) or a high fat, western style diet (HFD) with 60% kcals from fat, (diet #58126, Lab Diet, Inc., St. Louis, Mo.) for 4 months. One month after the start of the high fat diet treatment, the high fat diet group was further split into 2 groups for 3 months: i) high fat diet and the drinking water containing 1% DMSO; ii) high fat diet and the drinking water containing 1.5 mg/100 ml AC261066, a specific RARβ agonist. Then mice were sacrificed by cervical dislocation. Blood and various tissue samples were harvested.
Paraffin-embedded sections (from two to four mice per group) were deparaffinized and rehydrated, and antigen retrieval was performed using an antigen unmasking solution (Vector Laboratories, H-3300). After quenching endogenous peroxidase with 3% H2O2, the tissue sections were blocked with the blocking reagent (from the M.O.M. kit from Vector Laboratories). Then, tissue sections were incubated with a 4-HNE antibody (1:400; mouse monoclonal antibody; Abcam, ab48506) overnight at 4° C. The sections were then incubated with secondary antibodies (1:200, anti-mouse IgG from the M.O.M kit). As a negative control, sections were stained without incubation with primary antibodies. […]

renal lipids = test: Oil red O staining of kidney sections; type: in vivo; settings: HF diet mice + AC261066 vs HF vehicle
α-SMA = α-SMA immunofluorescence of liver sections (hepatic stellate cell activation); type: in vivo; settings: HF diet mice + AC261066 or CD1530, vs HF-vehicle
Description: as §1
Staining. Fresh mouse liver samples were embedded in optimal cutting temperature (OCT) medium and immediately frozen to −70 centigrade. Cryosections were then fixed in 4% formaldehyde for 1 hr at room temp. Slides were then rinsed three times in deionized water (dH2O) for 30 s, followed by treatment with 0.5% Triton X-100 in PBS for 5 min. Sections were then washed three times with PBS for 5 min. Samples were with incubated 2% bovine serum albumin (BSA) for 30 min at room temperature to block for unspecific antibody binding. Following blocking, sections were washed three times in PBS and incubated with mouse monoclonal antibody against α-SMA (1:500) (Dako, Inc) for 24 h at 4° C. After 24 h sections were washed three times in PB and incubated with Alexa-Flour-488 anti-mouse secondary anti-body (1:500) (Invitrogen, Inc) for 30 min at room temperature. Sections were then washed three times in PBS and incubated with working strength oil-red O solution for 30 minutes at room temperature. Sections were then rinsed for 30 minutes under running tap water and cover-slipped with Vectashield hard mount plus DAPI (Vector Labs, Inc).

[1] = test system: retinyl palmitate and retinol; test: HPLC analysis of liver retinoids; type: in vivo, mice
Description: as §1
The frozen liver tissue samples (˜100 mg) were homogenized in 500 μl cold phosphate-buffered saline (PBS). In addition, 100 μl serum was diluted in cold PBS to total volume of 500 μl. Retinyl acetate was added to each sample before the retinoid extraction for the calculation of extraction efficiency. The retinoids were extracted into 350 μl of organic solution (acetonitrile/butanol, 50:50, v/v) in the dark. The high performance liquid chromatography (HPLC) was performed using a Waters Millennium system (Waters). Each sample (100 μl of the 350 μl) was loaded onto an analytical 5-μm reverse phase C18 column (Vydac, Hesperia, Calif.) and eluted at a flow rate of 1.5 ml/min. Two mobile phase gradient systems were used. Retinoids were identified by HPLC based on two criteria: an exact match of the retention times of unknown peaks with those of authentic retinoid standards and identical UV light spectra (220-400 nm) of unknowns against spectra from authentic retinoid standards during HPLC by the use of a photodiode array detector. The amounts of retinoids were calculated from the areas under the peaks detected at the wave-length of 325 nm. The levels of retinol and retinyl esters were normalized to the tissue weight.

TNF-α = test: Semi-quantitative PCR liver, TNF-α; type: in vivo; settings: HF diet mice + AC261066 or CD1530
Description: as §1
(§2) Total RNA was extracted from mouse tissues using TRIzol reagent (Life technologies) and (1 μg) was used to synthesize cDNA. cDNA synthesis was performed at 42° C. for 1 h in a final volume of 20 μl using qScript (Quanta, MD). Semi-quantitative PCR were performed Taq DNA polymerase (Invitrogen, CA). Three step PCR was run as follows: 94° C. for 30 s, 58-64° C. for 45 s for primer annealing and 72° C. for 1 min for primer extension. The number of cycles for each primer pair for amplification in the linear range was determined experimentally. PCR products were resolved 2% agarose gels and visualized by staining with ehtidium bromide. Primers for gene expression used were as follows: […]

RARβ2 [2] = test: Semi-quantitative PCR of pancreatic tissue, HF-fed mice; type: in vivo; settings: HF diet mice + AC261066 vs HF-vehicle
Description: as §1
as §2, with “resolved on” for “resolved”

RARβ2 [3] = test: Semi-quantitative PCR kidney, RARβ2; type: in vivo; settings: HF diet mice + AC261066
Description: as §1
as §2, with “(Invitrogen.” for “(Invitrogen,”, “resolved on” for “resolved”

[4] = test system: hepatocyte lipid accumulation; test: Hematoxylin and eosin staining of liver sections (hepatic steatosis); type: in vivo; settings: HF diet mice 4 months + AC261066 or CD1530; vs HF-vehicle
Description: as §1
At sacrifice, fresh mouse liver samples were fixed in 4% formaldehyde solution for 24 hr and embedded in paraffin blocks. Liver paraffin sections were cut 5 microns thick and mounted on glass slides and stained with hematoxylin and eosin (H and E) using standard protocols.

[5] = HF diet mice + AC261066 or CD1530 vs controls

CCCCOCCOc1nc(-c2ccc(C(=O)O)c(F)c2)sc1C [AC261066]
4-HNE levels (oxidative stress) in liver (4-hydroxynonenal (4-HNE)): reduces oxidative stress and ROS; also recorded: lower 4-HNE levels than those from the high fat diet group
kidney lipid accumulation (oil red O) (renal lipids): comparably less oil red o positive areas
α-SMA positive staining in liver (HSC activation) (α-SMA): diminished activation of hepatic stellate cells; also recorded: decreased expression of α-SMA; also recorded: decreased intensity and regions of α-SMA positive staining
α-SMA positive staining in liver (HSC activation) (α-SMA; listed as AC261011): α-SMA protein is decreased
higher levels of retinyl palmitate in the livers compared to HF-vehicle treated mice ([1]; HF diet mice + AC261066): 55%
liver retinol compared to controls [1, 5]: significantly lowered
liver retinyl palmitate compared to controls [1, 5]: significantly lowered
vitamin A deficiency in liver caused by high fat diet ([1]; HFD+AC261066): partially reversed
mRNA levels of TNF-α in liver (TNF-α): significantly diminish
RARβ (RARβ2) mRNA levels in pancreas (RARβ2 [2]): increased the RAR 32 mRNA levels; also recorded: increased compared to HF-vehicle treated mice
RARβ2 mRNA levels in kidney (RARβ2 [3]): restores RAR beta and LRAT mRNA levels; also recorded: did not have decreased RARβ2 mRNA levels
hepatocyte lipid infiltration / hepatic steatosis (H and E) [4]: diminished hepatic steatosis; also recorded: prevent hepatic steatosis; also recorded: marked decreased hepatocyte lipid infiltration
